{"source": "ChEMBL document CHEMBL4507293", "about": "(2021)", "key": {"[1]": {"target": "Glutamate receptor ionotropic, kainate (Rattus norvegicus) (UniProt P22756+Q01812+P42260+P42264+Q63273)", "assay": "Inhibition of Glutamate, Kainate at 10 µM in the Eurofins-Panlabs radioligand binding assay (Eurofins_assay_232700)", "conditions": "Compound concentration 10.0 uM"}, "[2]": {"target": "Beta-2 adrenergic receptor (Homo sapiens) (UniProt P07550)", "conditions": "Compound concentration 10.0 uM"}, "[3]": {"target": "Sodium-dependent serotonin transporter (Homo sapiens) (UniProt P31645)", "conditions": "Compound concentration 10.0 uM"}, "Caspase-3 (Homo sapiens)": {"target": "Caspase-3 (Homo sapiens) (UniProt P42574)", "assay": "Peptidase, CASP3 (Caspase 3) Eurofins-Panlabs enzyme assay", "conditions": "Compound concentration 10.0 uM"}, "[4]": {"target": "Retinoic acid receptor RXR-alpha (Homo sapiens) (UniProt P19793)", "assay": "Retinoid X Receptor RXRalpha Eurofins-Panlabs radioligand binding assay", "conditions": "Compound concentration 10.0 uM"}, "[5]": {"target": "Sodium-dependent noradrenaline transporter (Homo sapiens) (UniProt P23975)", "sequence (P23975 whole entry)": "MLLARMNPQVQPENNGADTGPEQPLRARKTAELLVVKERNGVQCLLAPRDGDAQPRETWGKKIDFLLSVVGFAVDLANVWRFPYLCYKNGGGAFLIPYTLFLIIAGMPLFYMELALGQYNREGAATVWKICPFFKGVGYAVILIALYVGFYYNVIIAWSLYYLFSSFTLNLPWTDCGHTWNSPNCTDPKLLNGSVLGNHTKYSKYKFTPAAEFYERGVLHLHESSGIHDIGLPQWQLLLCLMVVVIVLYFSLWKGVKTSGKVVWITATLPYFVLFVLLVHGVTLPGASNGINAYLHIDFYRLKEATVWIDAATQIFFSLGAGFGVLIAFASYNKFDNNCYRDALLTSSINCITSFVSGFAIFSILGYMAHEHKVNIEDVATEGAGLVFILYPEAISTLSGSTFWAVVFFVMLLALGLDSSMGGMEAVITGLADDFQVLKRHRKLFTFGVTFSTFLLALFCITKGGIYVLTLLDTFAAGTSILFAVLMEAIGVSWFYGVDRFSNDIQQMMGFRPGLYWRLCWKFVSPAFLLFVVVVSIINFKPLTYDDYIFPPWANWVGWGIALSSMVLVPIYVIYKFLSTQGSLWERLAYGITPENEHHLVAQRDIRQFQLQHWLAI", "conditions": "Compound concentration 10.0 uM"}, "[6]": {"target": "T1, Glutamate NMDA receptor (Rattus norvegicus) (UniProt P35439+Q00959+Q00960+Q00961+Q62645+Q8VHN2+Q9R1M7)", "conditions": "Compound concentration 10.0 uM"}, "[7]": {"target": "Epidermal growth factor receptor (Homo sapiens) (UniProt P00533)", "assay": "Protein Tyrosine Kinase, EGF Receptor Eurofins-Panlabs enzyme assay", "set-up": "substrate with concentration 10 µg/mL Poly(Glu:Tyr), incubation time 60 min, incubation temperature 25 °C", "conditions": "Compound concentration 10.0 uM"}, "[8]": {"target": "Corticotropin-releasing factor receptor 1 (Homo sapiens) (UniProt P34998)", "assay": "Corticotropin Releasing Factor CRF1 Eurofins-Panlabs radioligand binding assay", "conditions": "Compound concentration 10.0 uM"}, "[9]": {"target": "Sodium-dependent noradrenaline transporter (Homo sapiens) (UniProt P23975)", "conditions": "Compound concentration 10.0 uM", "remark": "listed apart in the source"}, "[10]": {"target": "Phosphodiesterase 3 (Homo sapiens) (UniProt Q14432+Q13370)", "assay": "Inhibition of Phosphodiesterase PDE3 at compound concentration of 10.0 uM in the Eurofins-Panlabs enzyme assay (Eurofins_assay_152000)", "assay_type": "protein assay", "set-up": "substrate with concentration 1.01 uM [3H] cAMP + cAMP, incubation time 20 min, incubation temperature 25 C", "conditions": "Compound concentration 10.0 uM"}, "[11]": {"target": "Kappa-type opioid receptor (Homo sapiens) (UniProt P41145)", "sequence (P41145 whole entry)": "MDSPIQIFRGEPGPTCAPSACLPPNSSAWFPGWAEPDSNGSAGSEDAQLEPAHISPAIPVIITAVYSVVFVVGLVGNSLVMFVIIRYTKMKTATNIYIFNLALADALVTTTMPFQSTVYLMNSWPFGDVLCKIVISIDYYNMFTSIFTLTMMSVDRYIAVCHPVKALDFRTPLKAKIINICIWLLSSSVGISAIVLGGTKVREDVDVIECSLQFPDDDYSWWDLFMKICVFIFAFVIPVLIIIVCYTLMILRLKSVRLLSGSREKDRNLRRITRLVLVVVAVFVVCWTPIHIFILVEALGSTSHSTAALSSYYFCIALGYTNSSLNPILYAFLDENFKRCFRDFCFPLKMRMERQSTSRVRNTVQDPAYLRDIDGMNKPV", "conditions": "Compound concentration 10.0 uM"}, "[12]": {"target": "C-X-C chemokine receptor type 2 (Homo sapiens) (UniProt P25025)", "sequence (P25025 whole entry)": "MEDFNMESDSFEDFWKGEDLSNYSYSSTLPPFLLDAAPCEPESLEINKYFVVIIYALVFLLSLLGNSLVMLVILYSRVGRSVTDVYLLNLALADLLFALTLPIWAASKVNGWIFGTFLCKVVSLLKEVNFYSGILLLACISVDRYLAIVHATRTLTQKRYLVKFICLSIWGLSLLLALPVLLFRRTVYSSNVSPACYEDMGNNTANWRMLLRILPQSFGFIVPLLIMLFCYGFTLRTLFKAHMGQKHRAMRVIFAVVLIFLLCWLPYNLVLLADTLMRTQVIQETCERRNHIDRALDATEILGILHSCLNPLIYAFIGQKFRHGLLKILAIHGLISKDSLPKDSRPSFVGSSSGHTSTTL", "assay": "Inhibition of Chemokine CXCR2 (IL-8RB) at 10 µM in the Eurofins-Panlabs radioligand binding assay (Eurofins_assay_244500)", "conditions": "Compound concentration 10.0 uM"}, "[13]": {"target": "Insulin receptor (Homo sapiens) (UniProt P06213)", "assay": "Protein Tyrosine Kinase, Insulin Receptor Eurofins-Panlabs enzyme assay", "set-up": "substrate with concentration 10 µg/mL Histone H1, incubation time 60 min, incubation temperature 25 °C", "conditions": "Compound concentration 10.0 uM"}, "[14]": {"target": "Thyrotropin-releasing hormone receptor (Homo sapiens) (UniProt P34981)", "assay": "Thyrotropin Releasing Hormone (TRH) Eurofins-Panlabs radioligand binding assay", "set-up": "ligand concentration 3 nM", "conditions": "Rattus norvegicus; Compound concentration 10.0 uM"}, "[15]": {"target": "Cannabinoid receptor 2 (Homo sapiens) (UniProt P34972)", "conditions": "Compound concentration 10.0 uM"}, "[16]": {"target": "Histamine H2 receptor (Homo sapiens) (UniProt P25021)", "sequence (P25021 whole entry)": "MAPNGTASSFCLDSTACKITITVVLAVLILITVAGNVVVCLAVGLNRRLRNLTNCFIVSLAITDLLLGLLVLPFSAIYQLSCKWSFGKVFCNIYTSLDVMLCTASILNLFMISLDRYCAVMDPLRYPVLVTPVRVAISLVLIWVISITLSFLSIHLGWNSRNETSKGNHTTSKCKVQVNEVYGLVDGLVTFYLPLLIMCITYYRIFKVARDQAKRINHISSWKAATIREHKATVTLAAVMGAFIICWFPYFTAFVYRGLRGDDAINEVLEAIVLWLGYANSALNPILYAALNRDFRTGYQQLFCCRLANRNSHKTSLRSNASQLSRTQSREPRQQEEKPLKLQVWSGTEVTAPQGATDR", "conditions": "Compound concentration 10.0 uM"}, "[17]": {"target": "Cathepsin G (Homo sapiens) (UniProt P08311)", "sequence (P08311 whole entry)": "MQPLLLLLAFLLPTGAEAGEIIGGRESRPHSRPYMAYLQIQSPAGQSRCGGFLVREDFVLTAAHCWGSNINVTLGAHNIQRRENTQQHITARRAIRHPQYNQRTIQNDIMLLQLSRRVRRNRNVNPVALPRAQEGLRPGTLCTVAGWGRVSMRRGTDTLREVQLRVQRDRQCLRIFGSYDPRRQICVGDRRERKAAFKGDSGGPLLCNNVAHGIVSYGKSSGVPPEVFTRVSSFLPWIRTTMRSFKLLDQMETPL", "assay": "Inhibition of Peptidase, CTSG (Cathepsin G) at 10 µM in the Eurofins-Panlabs enzyme assay (Eurofins_assay_112510)", "set-up": "substrate with concentration", "conditions": "Compound concentration 10.0 uM"}, "Rattus norvegicus [18]": {"species_on_record": "Rattus norvegicus", "assay": "Protein Serine/Threonine Kinase, PKC, Non-Selective Eurofins-Panlabs enzyme assay", "conditions": "Compound concentration 10.0 uM"}, "[19]": {"target": "Prostaglandin F2-alpha receptor (Homo sapiens) (UniProt P43088)", "sequence (P43088 whole entry)": "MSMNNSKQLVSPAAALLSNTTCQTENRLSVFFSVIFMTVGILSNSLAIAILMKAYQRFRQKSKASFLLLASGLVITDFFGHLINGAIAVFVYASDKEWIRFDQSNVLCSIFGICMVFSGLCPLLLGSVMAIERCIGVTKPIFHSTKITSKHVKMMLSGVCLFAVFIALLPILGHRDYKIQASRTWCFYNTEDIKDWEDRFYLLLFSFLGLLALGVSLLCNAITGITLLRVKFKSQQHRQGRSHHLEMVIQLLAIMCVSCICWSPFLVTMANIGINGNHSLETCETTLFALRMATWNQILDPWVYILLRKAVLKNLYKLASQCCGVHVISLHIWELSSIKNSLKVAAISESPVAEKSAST", "assay": "Prostanoid FP Eurofins-Panlabs radioligand binding assay", "set-up": "ligand concentration 0.95 nM", "conditions": "Compound concentration 10.0 uM"}, "[20]": {"target": "5-hydroxytryptamine receptor 6 (Homo sapiens) (UniProt P50406)", "sequence (P50406 whole entry)": "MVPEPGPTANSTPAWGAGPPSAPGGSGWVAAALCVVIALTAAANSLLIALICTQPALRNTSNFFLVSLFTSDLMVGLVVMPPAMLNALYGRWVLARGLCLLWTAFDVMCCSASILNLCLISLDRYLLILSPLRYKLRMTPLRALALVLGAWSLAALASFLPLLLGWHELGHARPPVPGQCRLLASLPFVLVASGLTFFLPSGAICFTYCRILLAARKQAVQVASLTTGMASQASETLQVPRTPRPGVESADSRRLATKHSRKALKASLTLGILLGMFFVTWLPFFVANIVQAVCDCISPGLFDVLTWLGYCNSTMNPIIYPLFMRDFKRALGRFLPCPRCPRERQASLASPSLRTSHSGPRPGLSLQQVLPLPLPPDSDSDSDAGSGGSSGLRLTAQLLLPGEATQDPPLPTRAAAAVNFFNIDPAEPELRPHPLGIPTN", "assay": "Inhibition of Serotonin (5-Hydroxytryptamine) 5-HT6 at 10 µM in the Eurofins-Panlabs radioligand binding assay (Eurofins_assay_272200)", "conditions": "Compound concentration 10.0 uM"}, "[21]": {"target": "Cannabinoid receptor 1 (Homo sapiens) (UniProt P21554)", "conditions": "Compound concentration 10.0 uM"}, "[22]": {"target": "Platelet-activating factor receptor (Homo sapiens) (UniProt P25105)", "assay": "Inhibition of Platelet Activating Factor (PAF) at 10 µM in the Eurofins-Panlabs radioligand binding assay (Eurofins_assay_265010)", "conditions": "Compound concentration 10.0 uM"}, "[23]": {"target": "D(2) dopamine receptor (Homo sapiens) (UniProt P14416)", "conditions": "Compound concentration 10.0 uM"}, "Homo sapiens": {"species_on_record": "Homo sapiens", "assay": "Prostanoid, Thromboxane A2 (TP) Eurofins-Panlabs radioligand binding assay", "set-up": "ligand concentration 5 nM, non-specific ligand with concentration 1 µM SQ-29548, incubation time 30 min, incubation temperature 25 °C", "conditions": "Compound concentration 10.0 uM"}, "[24]": {"target": "C-C chemokine receptor type 1 (Homo sapiens) (UniProt P32246)", "assay": "Chemokine CCR1 Eurofins-Panlabs radioligand binding assay", "conditions": "Compound concentration 10.0 uM"}, "[25]": {"target": "Beta-3 adrenergic receptor (Homo sapiens) (UniProt P13945)", "conditions": "Compound concentration 10.0 uM"}, "[26]": {"target": "T1, Glutamate NMDA receptor (Rattus norvegicus)", "conditions": "Compound concentration 10.0 uM", "remark": "listed apart in the source"}, "[27]": {"target": "Adenosine Transporter (Cavia porcellus) (UniProt H0V4R7+H0UUG1+H0V3Z5)", "assay": "(§1) Inhibition of Transporter, Adenosine at compound concentration of 10.0 uM in the Eurofins-Panlabs radioligand binding assay (Eurofins_assay_202000)", "assay_type": "protein assay", "set-up": "ligand concentration 0.5 nM, non-specific ligand with concentration 5 uM Nitrobenzylthioinosine, incubation time 30 min, incubation temperature 25 C"}, "Adenosine Transporter": {"target": "Adenosine Transporter (Cavia porcellus, UniProt H0V4R7+H0UUG1+H0V3Z5)", "assay": "as §1", "assay_type": "protein assay", "set-up": "ligand concentration 0.5 nM, non-specific ligand with concentration 5 uM Nitrobenzylthioinosine, incubation time 30 min, incubation temperature 25 C"}, "Rattus norvegicus [28]": {"species_on_record": "Rattus norvegicus", "assay": "Inhibition of Glycine, Strychnine-Sensitive at 10 µM in the Eurofins-Panlabs radioligand binding assay (Eurofins_assay_239000)", "conditions": "Compound concentration 10.0 uM"}, "[29]": {"target": "B1 bradykinin receptor (Homo sapiens) (UniProt P46663)", "assay": "Inhibition of Bradykinin B1 at 10 µM in the Eurofins-Panlabs radioligand binding assay (Eurofins_assay_212510)", "conditions": "Compound concentration 10.0 uM"}, "[30]": {"target": "Alpha-1D adrenergic receptor (Homo sapiens) (UniProt P25100)", "assay": "Inhibition of Adrenergic alpha1D at 10 µM in the Eurofins-Panlabs radioligand binding assay (Eurofins_assay_203400)", "conditions": "Compound concentration 10.0 uM"}, "[31]": {"system": "Phosphatidylinositol 4,5-bisphosphate 3-kinase catalytic subunit alpha isoform (Homo sapiens), P42336 [H1047L]", "conditions": "Compound concentration 100.0 nM"}, "[32]": {"target": "Serine/threonine-protein kinase ULK1 (Homo sapiens) (UniProt O75385)", "conditions": "Compound concentration 100.0 nM"}, "[33]": {"target": "Citron Rho-interacting kinase (Homo sapiens) (UniProt O14578)", "sequence (O14578 whole entry)": "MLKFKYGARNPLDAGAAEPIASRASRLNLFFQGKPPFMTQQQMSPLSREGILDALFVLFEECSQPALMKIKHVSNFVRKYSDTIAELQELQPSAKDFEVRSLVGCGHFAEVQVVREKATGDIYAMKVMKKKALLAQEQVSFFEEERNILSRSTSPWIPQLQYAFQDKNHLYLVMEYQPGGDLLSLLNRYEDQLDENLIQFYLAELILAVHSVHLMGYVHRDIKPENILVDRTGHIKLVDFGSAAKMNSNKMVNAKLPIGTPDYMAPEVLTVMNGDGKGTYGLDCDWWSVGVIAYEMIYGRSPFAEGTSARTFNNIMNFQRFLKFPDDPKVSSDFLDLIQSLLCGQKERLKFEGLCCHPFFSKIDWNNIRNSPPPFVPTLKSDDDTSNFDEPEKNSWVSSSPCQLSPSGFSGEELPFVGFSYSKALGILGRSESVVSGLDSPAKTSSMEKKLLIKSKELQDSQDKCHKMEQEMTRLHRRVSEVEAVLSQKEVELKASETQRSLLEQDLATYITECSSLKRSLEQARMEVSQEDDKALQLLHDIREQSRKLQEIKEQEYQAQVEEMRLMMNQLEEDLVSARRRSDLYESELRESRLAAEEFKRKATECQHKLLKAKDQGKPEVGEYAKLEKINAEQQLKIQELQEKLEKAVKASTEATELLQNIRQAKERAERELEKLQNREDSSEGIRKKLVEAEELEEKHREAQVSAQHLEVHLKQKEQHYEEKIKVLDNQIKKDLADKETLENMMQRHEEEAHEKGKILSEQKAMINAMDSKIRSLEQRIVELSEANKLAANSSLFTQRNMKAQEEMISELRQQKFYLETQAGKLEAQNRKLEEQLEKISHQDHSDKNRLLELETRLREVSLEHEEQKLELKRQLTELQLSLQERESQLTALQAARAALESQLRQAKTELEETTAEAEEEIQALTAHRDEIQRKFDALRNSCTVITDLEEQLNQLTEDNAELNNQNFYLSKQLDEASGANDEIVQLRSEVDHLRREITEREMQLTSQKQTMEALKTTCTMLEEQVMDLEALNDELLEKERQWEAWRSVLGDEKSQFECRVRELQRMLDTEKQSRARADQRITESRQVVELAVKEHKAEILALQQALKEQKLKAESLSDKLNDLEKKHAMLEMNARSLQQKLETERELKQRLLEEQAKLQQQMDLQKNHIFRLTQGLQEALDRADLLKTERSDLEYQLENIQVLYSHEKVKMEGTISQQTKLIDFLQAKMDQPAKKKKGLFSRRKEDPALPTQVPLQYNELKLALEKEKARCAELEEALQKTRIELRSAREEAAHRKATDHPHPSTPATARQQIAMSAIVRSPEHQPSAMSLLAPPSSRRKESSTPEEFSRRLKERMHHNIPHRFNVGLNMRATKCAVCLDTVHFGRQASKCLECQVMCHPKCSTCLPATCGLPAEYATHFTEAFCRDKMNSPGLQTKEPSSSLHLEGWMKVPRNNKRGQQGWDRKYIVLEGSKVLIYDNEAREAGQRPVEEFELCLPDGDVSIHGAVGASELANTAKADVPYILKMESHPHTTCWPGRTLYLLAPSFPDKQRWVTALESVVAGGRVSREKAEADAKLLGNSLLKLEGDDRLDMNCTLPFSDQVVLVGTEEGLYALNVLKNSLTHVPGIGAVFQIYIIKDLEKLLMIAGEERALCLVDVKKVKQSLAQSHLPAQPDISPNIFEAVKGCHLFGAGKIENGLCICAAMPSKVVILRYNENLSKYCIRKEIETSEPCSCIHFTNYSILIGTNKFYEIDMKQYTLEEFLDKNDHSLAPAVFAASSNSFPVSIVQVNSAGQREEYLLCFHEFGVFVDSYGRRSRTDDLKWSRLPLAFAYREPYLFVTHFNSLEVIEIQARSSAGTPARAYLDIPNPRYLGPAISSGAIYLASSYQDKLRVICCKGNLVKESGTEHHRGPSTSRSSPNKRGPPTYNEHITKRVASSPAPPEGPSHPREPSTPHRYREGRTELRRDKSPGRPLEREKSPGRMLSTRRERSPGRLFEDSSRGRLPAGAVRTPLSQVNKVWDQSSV", "conditions": "Compound concentration 100.0 nM"}, "[34]": {"target": "Mitogen-activated protein kinase kinase kinase 2 (Homo sapiens) (UniProt Q9Y2U5)", "conditions": "Compound concentration 100.0 nM"}, "[35]": {"target": "Phosphatidylinositol 5-phosphate 4-kinase type-2 gamma (Homo sapiens) (UniProt Q8TBX8)", "conditions": "Compound concentration 100.0 nM"}, "[36]": {"target": "Mitogen-activated protein kinase kinase kinase kinase 1 (Homo sapiens) (UniProt Q92918)", "conditions": "Compound concentration 100.0 nM"}}, "data": [{"smiles": "COCCOc1nc(-c2ccc(Cl)nc2)nc2c1CN(C(=O)c1ncn3ccccc13)CC2", "note": "[THPP-1]", "values": [{"measurement": "inhibition", "setting": "[1]", "result": 9, "unit": "%"}, {"measurement": "inhibition", "setting": "[2]", "result": -4, "unit": "%"}, {"measurement": "inhibition", "setting": "[3]", "result": 2.72, "unit": "%"}, {"measurement": "inhibition", "setting": "Caspase-3 (Homo sapiens)", "result": -1, "unit": "%"}, {"measurement": "inhibition", "setting": "[4]", "result": -4, "unit": "%"}, {"measurement": "inhibition", "setting": "[5]", "result": 3, "unit": "%"}, {"measurement": "inhibition", "setting": "[6]", "result": 3, "unit": "%"}, {"measurement": "inhibition", "setting": "[7]", "result": 6, "unit": "%"}, {"measurement": "inhibition", "setting": "[8]", "result": 12, "unit": "%"}, {"measurement": "inhibition", "setting": "[9]", "result": -6.81, "unit": "%"}, {"measurement": "inhibition", "setting": "[10]", "result": 45, "unit": "%"}, {"measurement": "inhibition", "setting": "[11]", "result": 2, "unit": "%"}, {"measurement": "inhibition", "setting": "[12]", "result": -4, "unit": "%"}, {"measurement": "inhibition", "setting": "[13]", "result": -2, "unit": "%"}, {"measurement": "inhibition", "setting": "[14]", "result": 7, "unit": "%"}, {"measurement": "inhibition", "setting": "[15]", "result": 28, "unit": "%"}, {"measurement": "inhibition", "setting": "[16]", "result": 2, "unit": "%"}, {"measurement": "inhibition", "setting": "[17]", "result": 17, "unit": "%"}, {"measurement": "inhibition", "setting": "Rattus norvegicus [18]", "result": 12, "unit": "%"}, {"measurement": "inhibition", "setting": "[19]", "result": 22, "unit": "%"}, {"measurement": "inhibition", "setting": "[20]", "result": 5, "unit": "%"}, {"measurement": "inhibition", "setting": "[21]", "result": 21, "unit": "%"}, {"measurement": "inhibition", "setting": "[22]", "result": -4, "unit": "%"}, {"measurement": "inhibition", "setting": "[23]", "result": 3, "unit": "%"}, {"measurement": "inhibition", "setting": "Homo sapiens", "result": 8, "unit": "%"}, {"measurement": "inhibition", "setting": "[24]", "result": 11, "unit": "%"}, {"measurement": "inhibition", "setting": "[25]", "result": 1, "unit": "%"}, {"measurement": "inhibition", "setting": "[26]", "result": 0, "unit": "%"}, {"measurement": "inhibition", "setting": "[27]; Compound concentration 0.01 uM", "result": -6, "unit": "%"}, {"measurement": "inhibition", "setting": "[27]; Compound concentration 0.1 uM", "result": 21, "unit": "%"}, {"measurement": "inhibition", "setting": "[27]; Compound concentration 1.0 uM", "result": 40, "unit": "%"}, {"measurement": "inhibition", "setting": "[27]; Compound concentration 10.0 uM", "result": 75, "unit": "%"}, {"measurement": "IC50", "setting": "Adenosine Transporter", "result": 1610, "unit": "nM"}, {"measurement": "Ki", "setting": "Adenosine Transporter", "result": 550, "unit": "nM"}, {"measurement": "inhibition", "setting": "Rattus norvegicus [28]", "result": 15, "unit": "%"}, {"measurement": "inhibition", "setting": "[29]", "result": 28, "unit": "%"}, {"measurement": "inhibition", "setting": "[30]", "result": 45, "unit": "%"}]}, {"smiles": "CC(C)CC(=O)N1CCc2nc(-c3ccc(Br)cc3)nc(N(C)Cc3ccccc3)c2C1", "note": "[THPP-1-NC]", "values": [{"measurement": "residual activity", "setting": "[31]", "result": 100, "unit": "%"}, {"measurement": "residual activity", "setting": "[32]", "result": 90, "unit": "%"}, {"measurement": "residual activity", "setting": "[33]", "result": 100, "unit": "%"}, {"measurement": "residual activity", "setting": "[34]", "result": 100, "unit": "%"}, {"measurement": "residual activity", "setting": "[35]", "result": 96, "unit": "%"}, {"measurement": "residual activity", "setting": "[36]", "result": 93, "unit": "%"}]}]}
